This is an account of results in ChEMBL document CHEMBL1149234, “Exploration of the P1 SAR of aldehyde cathepsin K inhibitors” (Bioorg Med Chem Lett, 2004).

The target in this test is T1, Cathepsin K (Homo sapiens, UniProt P43235).
T1 sequence (P43235 whole entry): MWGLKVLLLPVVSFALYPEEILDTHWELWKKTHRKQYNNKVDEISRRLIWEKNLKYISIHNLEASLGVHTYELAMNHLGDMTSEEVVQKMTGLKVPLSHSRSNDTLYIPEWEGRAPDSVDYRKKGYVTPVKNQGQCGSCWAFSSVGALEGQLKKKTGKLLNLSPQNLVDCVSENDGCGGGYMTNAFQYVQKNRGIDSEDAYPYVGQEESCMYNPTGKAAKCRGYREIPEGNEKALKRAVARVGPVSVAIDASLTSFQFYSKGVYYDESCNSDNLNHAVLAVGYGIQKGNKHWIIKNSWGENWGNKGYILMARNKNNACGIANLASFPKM
The test can be described thus: Inhibitory activity against recombinant human cathepsin K.
With `CCCCCC[C@@H](C=O)NC(=O)OC(C)(C)C`, the 50% inhibitory concentration (IC50) (in general, the concentration needed to halve the response being measured) stood at 23 nM.

In the case of `CC(C)(C)OC(=O)N[C@H](C=O)CCCc1ccccc1`, the IC50 was found to be 15 nM.

Take `COC(=O)NC[C@@H](C=O)NC(=O)OC(C)(C)C`: the 50% inhibitory concentration (IC50) turned out to be 370 nM.

Consider `CCC(C)[C@H](C=O)NC(=O)OC(C)(C)C` (stereo partly drawn), for which the 50% inhibitory concentration (IC50) worked out at 130 nM.

For the molecule `CCC(C)[C@@H](C=O)NC(=O)OC(C)(C)C` (stereo partly drawn), the IC50 stood at 250 nM.

As to `CC(C)(C)OC(=O)N[C@H](C=O)CCCC1CCCCC1`, the IC50 was found to be 16 nM.

Take `CC(C)(C)OC(=O)N[C@H](C=O)CC1CCCCC1`: the half-inhibitory concentration (IC50) was found to be 36 nM.

In the case of `CCCCC[C@@H](C=O)NC(=O)OC(C)(C)C`, the IC50 was determined as 110 nM.

With `CSCC[C@@H](C=O)NC(=O)OC(C)(C)C`, the 50% inhibitory concentration (IC50) came to 78 nM.

Take `CC(C)(C)OC(=O)N[C@H](C=O)c1ccccc1`: the IC50 is 51 nM.

Regarding `CC(C)(C)OC(=O)N[C@H](C=O)CCc1ccccc1`, the half-maximal inhibitory concentration (IC50) turned out to be 30 nM.

`CN(CCCC[C@@H](C=O)NC(=O)OC(C)(C)C)C(=O)C(F)(F)F`: the IC50 stood at 50 nM.

For `CC(C)[C@@H](C=O)NC(=O)OC(C)(C)C`, the IC50 was found to be 160 nM.

For `CC(C)(C)OC(=O)N[C@H](C=O)CCCCNC(=O)C(F)(F)F`, the IC50 was found to be 41 nM.

Take `CN(CCC[C@@H](C=O)NC(=O)OC(C)(C)C)C(=O)C(F)(F)F`: the IC50 came to 29 nM.

With `COCC[C@@H](C=O)NC(=O)OC(C)(C)C`, the IC50 was 680 nM.

In the case of `CN(CC[C@@H](C=O)NC(=O)OC(C)(C)C)C(=O)C(F)(F)F`, the IC50 was found to be 98 nM.

Turning to `CC[C@@H](C=O)NC(=O)OC(C)(C)C`, the IC50 stood at 58 nM.

As to `CCSC[C@@H](C=O)NC(=O)OC(C)(C)C`, the half-inhibitory concentration (IC50) came to 83 nM.

Regarding `CC(C)(C)C[C@@H](C=O)NC(=O)OC(C)(C)C`, the half-maximal inhibitory concentration (IC50) was determined as 250 nM.

In the case of `CCOC[C@@H](C=O)NC(=O)OC(C)(C)C`, the IC50 was found to be 660 nM.

With `CC(C)(C)OC(=O)N[C@H](C=O)Cc1ccccc1`, the IC50 was 110 nM.

Turning to `C/C=C/C[C@@H](C=O)NC(=O)OC(C)(C)C`, the IC50 was found to be 150 nM.

Turning to `CCC[C@@H](C=O)NC(=O)OC(C)(C)C`, the IC50 was determined as 38 nM.

Regarding `CC#CC[C@@H](C=O)NC(=O)OC(C)(C)C`, the IC50 stood at 410 nM.

As to `C[C@@H](C=O)NC(=O)OC(C)(C)C`, the IC50 amounted to 200 nM.

As to `CC(C)(C)OC(=O)N[C@H](C=O)C(C)(C)C`, the 50% inhibitory concentration (IC50) was 52000 nM.

As to `CC(C)(C)OC(=O)NCC=O`, the concentration for half-maximal inhibition (IC50) is 5800 nM.

In the case of `CC(C)(C)OC(=O)N[C@H](C=O)CCCC(F)(F)F`, the IC50 was 87 nM.

With `CC(C)(C)OC(=O)N[C@H](C=O)CCC1CCCCC1`, the half-inhibitory concentration (IC50) is 26 nM.

As for `COC(=O)NCCCC[C@@H](C=O)NC(=O)OC(C)(C)C`, the half-inhibitory concentration (IC50) stood at 15 nM.

In the case of `C/C=C\C[C@@H](C=O)NC(=O)OC(C)(C)C`, the half-inhibitory concentration (IC50) was 41 nM.

Turning to `C=C(C)C[C@@H](C=O)NC(=O)OC(C)(C)C`, the half-maximal inhibitory concentration (IC50) amounted to 79 nM.

Regarding `CC(C)(C)OC(=O)N[C@H](C=O)CSCc1ccccc1`, the half-maximal inhibitory concentration (IC50) was 40 nM.

Consider `CC(C)(C)OC(=O)N[C@H](C=O)COCc1ccccc1`, for which the half-maximal inhibitory concentration (IC50) worked out at 38 nM.

Consider `CC(C)C[C@@H](C=O)NC(=O)OC(C)(C)C`, for which the IC50 is 31 nM.

Take `CCCC[C@@H](C=O)NC(=O)OC(C)(C)C`: the IC50 stood at 51 nM.

For the molecule `CCCC[C@@H](C=O)NC(=O)[C@H](CC(C)C)NC(=O)OCc1ccccc1` [CALPEPTIN], the half-inhibitory concentration (IC50) was 0.11 nM.
